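Interpolation was linear, between the two tested concentrations surrounding the appropriate level; five concentrations were tested over 48 hours in 96-well plates. The concentration for 50% growth inhibition is given as GI50.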 Calls of active or inactive are those of the source. Rule as the data show it: active = GI50 up to about 1.1 µM and inactive = higher.
Assays:
Test in all cases: NCI-60 cell line screen, 48 h
786-0 = system: 786-0
A498 = system: A498
A549 = system: A549
ACHN = system: ACHN
CAKI-1 = system: CAKI-1
CCRF-CEM = system: CCRF-CEM
COLO 205 = system: COLO 205
DU-145 = system: DU-145
EKVX = system: EKVX
HCC 2998 = system: HCC 2998
HCT-116 = system: HCT-116
HCT-15 = system: HCT-15
HL-60 = system: HL-60
HOP-62 = system: HOP-62
HT-29 = system: HT-29
Hs-578T = system: Hs-578T
IGROV-1 = system: IGROV-1
K562 = system: K562
KM12 = system: KM12
LOX IMVI = system: LOX IMVI
M14 = system: M14
MCF7 = system: MCF7
MDA-MB-231 = system: MDA-MB-231
MDA-MB-435 = system: MDA-MB-435
MDA-N = system: MDA-N
MOLT-4 = system: MOLT-4
Malme-3M = system: Malme-3M
NCI-H226 = system: NCI-H226
NCI-H23 = system: NCI-H23
NCI-H460 = system: NCI-H460
NCI-H522 = system: NCI-H522
NCI/ADR-RES = system: NCI/ADR-RES
OVCAR-3 = system: OVCAR-3
OVCAR-4 = system: OVCAR-4
OVCAR-5 = system: OVCAR-5
OVCAR-8 = system: OVCAR-8
PC-3 = system: PC-3
RPMI-8226 = system: RPMI-8226
RXF 393 = system: RXF 393
SF-268 = system: SF-268
SF-295 = system: SF-295
SF-539 = system: SF-539
SK-MEL-28 = system: SK-MEL-28
SK-MEL-2 = system: SK-MEL-2
SK-MEL-5 = system: SK-MEL-5
SK-OV-3 = system: SK-OV-3
SN12C = system: SN12C
SNB-19 = system: SNB-19
SNB-75 = system: SNB-75
SR = system: SR
SW-620 = system: SW-620
T47D = system: T47D
TK-10 = system: TK-10
U-251 = system: U-251
UACC-257 = system: UACC-257
UACC-62 = system: UACC-62
UO-31 = system: UO-31
HOP-92 = system: HOP-92

Question: How did the GI50 (786-0) turn out when `C=C(Br)CNCC(=C)Br` was run?
Answer: > 100 µM (inactive)

Question: What about the GI50 (A498) of the same molecule?
Answer: > 100 µM (inactive)

Question: And the GI50 (A549)?
Answer: > 100 µM (inactive)

Question: And the GI50 (ACHN)?
Answer: > 100 µM (inactive)

Question: What about the GI50 (CAKI-1) of the same molecule?
Answer: > 100 µM (inactive)

Question: What about the GI50 (CCRF-CEM) of the same molecule?
Answer: 76.2 µM (inactive)

Question: And the GI50 (COLO 205)?
Answer: 52 µM (inactive)

Question: What about the GI50 (DU-145) of the same molecule?
Answer: > 100 µM (inactive)

Question: And the GI50 (EKVX)?
Answer: > 100 µM (inactive)

Question: What about the GI50 (HCC 2998) of the same molecule?
Answer: > 100 µM (inactive)

Question: What about the GI50 (HCT-116) of the same molecule?
Answer: 68.1 µM (inactive)

Question: And the GI50 (HCT-15)?
Answer: > 100 µM

Question: What about the GI50 (HL-60) of the same molecule?
Answer: 26.7 µM (inactive)

Question: And the GI50 (HOP-62)?
Answer: > 100 µM (inactive)

Question: What about the GI50 (HT-29) of the same molecule?
Answer: 90.6 µM (inactive)

Question: What about the GI50 (Hs-578T) of the same molecule?
Answer: > 100 µM (inactive)

Question: And the GI50 (IGROV-1)?
Answer: > 100 µM (inactive)

Question: What about the GI50 (K562) of the same molecule?
Answer: 38 µM (inactive)

Question: What about the GI50 (KM12) of the same molecule?
Answer: > 100 µM (inactive)

Question: What about the GI50 (LOX IMVI) of the same molecule?
Answer: > 100 µM (inactive)

Question: What about the GI50 (M14) of the same molecule?
Answer: > 100 µM (inactive)

Question: And the GI50 (MCF7)?
Answer: > 100 µM (inactive)

Question: What about the GI50 (MDA-MB-231) of the same molecule?
Answer: > 100 µM (inactive)

Question: And the GI50 (MDA-MB-435)?
Answer: > 100 µM (inactive)

Question: And the GI50 (MDA-N)?
Answer: > 100 µM (inactive)

Question: What about the GI50 (MOLT-4) of the same molecule?
Answer: 48.6 µM (inactive)

Question: What about the GI50 (Malme-3M) of the same molecule?
Answer: 93.1 µM (inactive)

Question: And the GI50 (NCI-H226)?
Answer: > 100 µM (inactive)

Question: What about the GI50 (NCI-H23) of the same molecule?
Answer: > 100 µM (inactive)

Question: What about the GI50 (NCI-H460) of the same molecule?
Answer: > 100 µM (inactive)

Question: What about the GI50 (NCI-H522) of the same molecule?
Answer: > 100 µM (inactive)

Question: What about the GI50 (NCI/ADR-RES) of the same molecule?
Answer: > 100 µM (inactive)

Question: What about the GI50 (OVCAR-3) of the same molecule?
Answer: 30.8 µM (inactive)

Question: What about the GI50 (OVCAR-4) of the same molecule?
Answer: > 100 µM (inactive)

Question: What about the GI50 (OVCAR-5) of the same molecule?
Answer: > 100 µM (inactive)

Question: And the GI50 (OVCAR-8)?
Answer: > 100 µM (inactive)

Question: What about the GI50 (PC-3) of the same molecule?
Answer: 50.5 µM (inactive)

Question: What about the GI50 (RPMI-8226) of the same molecule?
Answer: 51.9 µM (inactive)

Question: And the GI50 (RXF 393)?
Answer: > 100 µM (inactive)

Question: What about the GI50 (SF-268) of the same molecule?
Answer: > 100 µM (inactive)

Question: And the GI50 (SF-295)?
Answer: > 100 µM (inactive)

Question: What about the GI50 (SF-539) of the same molecule?
Answer: > 100 µM (inactive)

Question: And the GI50 (SK-MEL-28)?
Answer: > 100 µM (inactive)

Question: What about the GI50 (SK-MEL-2) of the same molecule?
Answer: > 100 µM (inactive)

Question: And the GI50 (SK-MEL-5)?
Answer: 89.7 µM (inactive)

Question: And the GI50 (SK-OV-3)?
Answer: > 100 µM (inactive)

Question: What about the GI50 (SN12C) of the same molecule?
Answer: > 100 µM (inactive)

Question: And the GI50 (SNB-19)?
Answer: > 100 µM (inactive)

Question: And the GI50 (SNB-75)?
Answer: 68.5 µM (inactive)

Question: And the GI50 (SR)?
Answer: > 100 µM (inactive)

Question: And the GI50 (SW-620)?
Answer: > 100 µM (inactive)

Question: What about the GI50 (T47D) of the same molecule?
Answer: > 100 µM (inactive)

Question: What about the GI50 (TK-10) of the same molecule?
Answer: > 100 µM (inactive)

Question: What about the GI50 (U-251) of the same molecule?
Answer: > 100 µM (inactive)

Question: And the GI50 (UACC-257)?
Answer: 29 µM (inactive)

Question: And the GI50 (UACC-62)?
Answer: > 100 µM (inactive)

Question: And the GI50 (UO-31)?
Answer: > 100 µM (inactive)

Question: What does the source list for `C[C@]12CCC(O)CC1=CC[C@@H]1[C@@H]2CC[C@]2(C)C(=O)[C@H](n3ccnc3)C[C@@H]12` (stereo partly specified)?
Answer: GI50 (786-0): > 100 µM (inactive); GI50 (A498): > 100 µM (inactive); GI50 (A549): 91.4 µM (inactive); GI50 (ACHN): > 100 µM (inactive); GI50 (CAKI-1): > 100 µM (inactive); GI50 (CCRF-CEM): 22.1 µM (inactive); GI50 (COLO 205): 28.7 µM (inactive); GI50 (DU-145): > 100 µM (inactive); GI50 (EKVX): > 100 µM (inactive); GI50 (HCT-116): 54.5 µM (inactive); GI50 (HCT-15): > 100 µM; GI50 (HL-60): 11.6 µM (inactive); GI50 (HOP-92): > 100 µM (inactive); GI50 (HT-29): 28.2 µM (inactive); GI50 (Hs-578T): > 100 µM (inactive); GI50 (IGROV-1): > 100 µM (inactive); GI50 (K562): 38 µM (inactive); GI50 (KM12): 38.9 µM (inactive); GI50 (LOX IMVI): 44.5 µM (inactive); GI50 (M14): 77.6 µM (inactive); GI50 (MCF7): 35.8 µM (inactive); GI50 (MDA-MB-231): > 100 µM (inactive); GI50 (MDA-MB-435): 43.1 µM (inactive); GI50 (MDA-N): 57.4 µM (inactive); GI50 (MOLT-4): 17.9 µM (inactive); GI50 (Malme-3M): > 100 µM (inactive); GI50 (NCI-H226): > 100 µM (inactive); GI50 (NCI-H23): 33.8 µM (inactive); GI50 (NCI-H460): 40.9 µM (inactive); GI50 (NCI-H522): 33.5 µM (inactive); GI50 (NCI/ADR-RES): 39.8 µM (inactive); GI50 (OVCAR-3): > 100 µM (inactive); GI50 (OVCAR-4): 89.1 µM (inactive); GI50 (OVCAR-5): > 100 µM (inactive); GI50 (OVCAR-8): 37.4 µM (inactive); GI50 (PC-3): 28.6 µM (inactive); GI50 (RPMI-8226): 21.2 µM (inactive); GI50 (RXF 393): > 100 µM (inactive); GI50 (SF-268): > 100 µM (inactive); GI50 (SF-295): 94.8 µM (inactive); GI50 (SF-539): 58.6 µM (inactive); GI50 (SK-MEL-28): 79.4 µM (inactive); GI50 (SK-MEL-2): 27 µM (inactive); GI50 (SK-MEL-5): 16.2 µM (inactive); GI50 (SN12C): > 100 µM (inactive); GI50 (SNB-19): 79.1 µM (inactive); GI50 (SNB-75): > 100 µM (inactive); GI50 (SR): 32.4 µM (inactive); GI50 (SW-620): > 100 µM (inactive); GI50 (TK-10): > 100 µM (inactive); GI50 (U-251): 61.9 µM (inactive); GI50 (UACC-257): 40.4 µM (inactive); GI50 (UACC-62): 47.5 µM (inactive); GI50 (UO-31): 75.9 µM (inactive)
